Results on four compounds are retold here after ChEMBL document CHEMBL1201862, “PubChem BioAssay data set” (2004).

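How tested: cells in 96-well plates exposed to compound for 48 hours at five concentrations. GI50 marks 50% less growth.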 The source made the active and inactive calls. Cut-off read from the data, not from the text of the source: active = GI50 up to about 1.1 µM and inactive = higher.

Holding throughout (test): NCI-60 cell line screen, 48 h
Experiment [1] concerns SF-268.
Experiment [2] deals with A549.
Experiment [3] relates to Hs-578T.
Experiment [4] has as its system NCI-H23.
Experiment [5] concerns SF-295.
The test system of experiment [6] is SN12C.
Experiment [7] relates to NCI/ADR-RES.
Experiment [8] concerns HOP-92.
The subject of experiment [9] is OVCAR-5.
Experiment [10] has as its system EKVX.
Experiment [11] concerns SR.
The test system of experiment [12] is MDA-N.
Experiment [13] has as its system 786-0.
Experiment [14] concerns HCT-15.
The test system of experiment [15] is SW-620.
Experiment [16] has as its system HCT-116.
For experiment [17], the system named is KM12.
Experiment [18] concerns M14.
In experiment [19] the test system is MDA-MB-231.
Experiment [20] concerns NCI-H522.

Turning to `CCCN(CCCc1ccccc1)CCc1ccc2[nH]c(=S)[nH]c2c1`, the GI50 in [1] is 52.4 µM (inactive); in experiment [2], 34 µM (inactive); in experiment [3] it was 39.8 µM (inactive); in [4], 40.6 µM (inactive); in experiment [5], 12.4 µM (inactive); in [6], > 100 µM (inactive). Also, the GI50 was 20.5 µM (inactive) in experiment [7]; 8.87 µM (inactive) in experiment [8]; 48.5 µM (inactive) in experiment [9]; 58.9 µM (inactive) in experiment [10]; 2.89 µM (inactive) in [11]; 19.2 µM (inactive) in experiment [12]. The GI50 in [13] is 12.6 µM (inactive); in experiment [14], 25.8 µM; in experiment [15], 27 µM (inactive); in experiment [16], 13.1 µM (inactive); in experiment [17], 26.1 µM (inactive); in experiment [18], 16.7 µM (inactive). Moreover, the GI50 in experiment [19] is 14.7 µM (inactive).
Regarding `FC(F)(F)c1ccc2c(c1)nc(-c1ccccc1)n2CC1CCCN2CCCCC12` (stereo not drawn), the GI50 was 15.6 µM (inactive) in experiment [1]; 24.9 µM (inactive) in experiment [2]; 16.8 µM (inactive) in [3]; 15.1 µM (inactive) in experiment [5]; 18.6 µM (inactive) in [6]; 16.3 µM (inactive) in [7]. Also, the GI50 in [8] was 18.8 µM (inactive); in [10], 29.2 µM (inactive); in [11] it was 17.6 µM (inactive); in [12], 17.6 µM (inactive); in experiment [13], 15.7 µM (inactive); in experiment [14], 21.9 µM. For the same compound, the GI50 was 28.1 µM (inactive) in [15]; 16.4 µM (inactive) in [16]; 19.2 µM (inactive) in experiment [17]; 14.2 µM (inactive) in experiment [20]; 17.1 µM (inactive) in [18]; 13.6 µM (inactive) in [19].
On to `CC[C@]1(Cc2ccc(OC)c(OC)c2)CN(S(=O)(=O)c2ccc(C)cc2)C[C@@H]1OC(C)=O`, for which the GI50 was > 100 µM (inactive) in [1]; 54.8 µM (inactive) in experiment [2]; > 100 µM (inactive) in [3]; > 100 µM (inactive) in experiment [4]; 38.5 µM (inactive) in experiment [5]; > 100 µM (inactive) in experiment [7]. For the same compound, the GI50 in [8] was 40.4 µM (inactive); in experiment [9], > 100 µM (inactive); in experiment [10], > 100 µM (inactive); in [11], > 100 µM (inactive); in experiment [12], > 100 µM (inactive); in experiment [13], 39.2 µM (inactive). The GI50 in experiment [14] is greater than 100 µM; in experiment [15] it was > 100 µM (inactive); in [17], > 100 µM (inactive); in experiment [18] it was > 100 µM (inactive); in experiment [19], > 100 µM (inactive).
In the case of `O=C(O)c1cc2c(cc1CC(Cc1ccccc1)C(=O)O)CCC2` (stereo not drawn), the GI50 in experiment [1], in experiment [2], in [3], in experiment [4], in [5] and in experiment [6] was > 100 µM (inactive) each time. The GI50 in experiment [7], in experiment [9], in experiment [10], in experiment [11], in experiment [12] and in [13] was > 100 µM (inactive) throughout. Moreover, the GI50 was greater than 100 µM in experiment [14]; > 100 µM (inactive) in [15]; > 100 µM (inactive) in experiment [16]; > 100 µM (inactive) in experiment [17]; > 100 µM (inactive) in experiment [20]; > 100 µM (inactive) in experiment [18]. The GI50 in experiment [19] is > 100 µM (inactive).
